Measured values published in patent US7105534B2, “Imidazo[1,2-α]pyridine ether compounds as ion channel modulators” (Cardiome Pharma Corp., priority 2000, dated 2006).

Tests used:
[1] = test system: anesthetized rats subjected to coronary artery occlusion; assay: Antiarrhythmic efficacy: arrhythmias after coronary artery occlusion in anesthetized rats; type: in vivo, rat; conditions: i.v. infusion
Description: Antiarrhythmic efficacy may be assessed by investigating the effect of a compound on the incidence of cardiac arrhythmias in anesthetized rats subjected to coronary artery occlusion. Rats weighing 200–300 gms are subjected to preparative surgery and assigned to groups in a random block design. In each case, the animal is anesthetized with pentobarbital during surgical preparation. The left carotid artery is cannulated for measurement of mean arterial blood pressure and withdrawal of blood samples. The left jugular vein is also cannulated for injection of drugs. The thoracic cavity is opened and a polyethylene occluder loosely placed around the left anterior descending coronary artery. The thoracic cavity is then closed. An ECG is recorded by insertion of electrodes placed along the anatomical axis of the heart. […] ECG, arrhythmias, blood pressure, heart rate and mortality are monitored for 15 minutes after occlusion. Arrhythmias are recorded as ventricular tachycardia (VT) and ventricular fibrillation (VF) and scored according to Curtis, M. J. and Walker, M. J. A., Cardiovasc. […]
Occlusion is associated with R-wave height and “S-T” segment elevation; and an occluded zone (measured after death by cardiogreen dye perfusion) in the range of 25%–50% of total left-ventricular weight.
Results of the test compounds may be expressed as values of a given infusion rate in micromol/kg/min. […]

hH1 Na+ current = target: T1, hH1 Na+ current (Homo sapiens, UniProt Q14524); assay: Patch-clamp inhibition of cloned ion channel current in transfected HEK cells: Na; type: cell-based; conditions: peak hH1 Na+ current, -100 mV to -30 mV
T1 construct: expressed in transfected cells; host or cells: HEK cells, transient transfection, vector pCDNA3
T1 sequence (Q14524 whole entry): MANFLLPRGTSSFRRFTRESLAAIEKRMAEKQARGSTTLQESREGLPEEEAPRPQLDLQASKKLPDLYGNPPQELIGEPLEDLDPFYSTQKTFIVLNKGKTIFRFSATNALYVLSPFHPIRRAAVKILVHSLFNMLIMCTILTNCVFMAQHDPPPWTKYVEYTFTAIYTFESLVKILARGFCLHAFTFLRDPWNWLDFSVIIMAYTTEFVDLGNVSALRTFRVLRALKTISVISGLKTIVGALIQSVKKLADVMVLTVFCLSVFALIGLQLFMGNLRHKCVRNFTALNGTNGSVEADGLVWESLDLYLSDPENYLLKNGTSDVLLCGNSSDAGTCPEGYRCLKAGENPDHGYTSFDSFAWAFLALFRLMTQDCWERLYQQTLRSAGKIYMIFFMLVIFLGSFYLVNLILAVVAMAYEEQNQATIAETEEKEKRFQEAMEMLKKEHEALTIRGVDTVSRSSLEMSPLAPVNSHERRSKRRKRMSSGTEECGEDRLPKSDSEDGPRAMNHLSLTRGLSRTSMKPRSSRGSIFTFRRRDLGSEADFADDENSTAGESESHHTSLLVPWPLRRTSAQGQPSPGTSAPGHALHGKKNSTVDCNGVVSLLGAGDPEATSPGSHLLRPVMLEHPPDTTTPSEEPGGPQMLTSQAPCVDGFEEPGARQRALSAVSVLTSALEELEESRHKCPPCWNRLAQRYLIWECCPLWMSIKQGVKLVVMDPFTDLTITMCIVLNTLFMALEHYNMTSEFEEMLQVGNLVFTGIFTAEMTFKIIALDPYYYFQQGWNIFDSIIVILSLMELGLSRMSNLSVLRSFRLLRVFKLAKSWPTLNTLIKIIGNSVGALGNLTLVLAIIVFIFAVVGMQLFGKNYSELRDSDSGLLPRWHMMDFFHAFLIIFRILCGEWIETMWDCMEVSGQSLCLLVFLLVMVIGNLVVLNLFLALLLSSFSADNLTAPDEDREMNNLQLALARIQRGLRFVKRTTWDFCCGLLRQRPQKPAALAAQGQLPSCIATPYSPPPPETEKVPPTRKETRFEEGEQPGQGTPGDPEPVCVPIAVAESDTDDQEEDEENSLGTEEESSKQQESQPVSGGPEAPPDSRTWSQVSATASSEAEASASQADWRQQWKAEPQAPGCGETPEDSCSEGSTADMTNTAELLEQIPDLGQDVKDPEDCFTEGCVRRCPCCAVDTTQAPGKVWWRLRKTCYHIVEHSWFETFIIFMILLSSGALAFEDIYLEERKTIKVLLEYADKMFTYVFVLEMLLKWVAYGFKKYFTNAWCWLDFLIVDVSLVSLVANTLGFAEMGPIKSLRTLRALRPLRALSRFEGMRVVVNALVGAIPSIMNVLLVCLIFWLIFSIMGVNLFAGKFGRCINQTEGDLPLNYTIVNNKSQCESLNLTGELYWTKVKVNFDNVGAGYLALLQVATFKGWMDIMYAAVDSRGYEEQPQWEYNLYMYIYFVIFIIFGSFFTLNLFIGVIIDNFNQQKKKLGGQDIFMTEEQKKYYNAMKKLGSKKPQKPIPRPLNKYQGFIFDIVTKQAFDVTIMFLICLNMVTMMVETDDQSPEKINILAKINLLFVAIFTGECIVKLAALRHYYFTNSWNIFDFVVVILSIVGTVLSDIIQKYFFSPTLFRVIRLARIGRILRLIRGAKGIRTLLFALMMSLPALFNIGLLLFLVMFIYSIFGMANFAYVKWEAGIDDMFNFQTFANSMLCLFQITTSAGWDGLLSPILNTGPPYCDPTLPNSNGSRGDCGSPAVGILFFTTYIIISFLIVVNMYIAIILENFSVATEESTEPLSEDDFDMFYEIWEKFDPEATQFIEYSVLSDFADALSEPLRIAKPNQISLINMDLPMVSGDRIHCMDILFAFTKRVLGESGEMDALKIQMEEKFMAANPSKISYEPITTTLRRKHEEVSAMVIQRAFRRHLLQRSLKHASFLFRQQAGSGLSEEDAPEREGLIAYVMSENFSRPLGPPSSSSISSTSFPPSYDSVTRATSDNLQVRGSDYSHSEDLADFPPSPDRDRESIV
Protocol: (§1) The relevant cloned ion channels (e.g. cardiac hH1, Kv1.4, Kv1.5, Kv4.2, Kv2.1, HERG etc.) are studied by transient transfection into HEK cells using the mammalian expression vector pCDNA3. Transfections for each channel type are carried out separately to allow individual study of the ion channel of interest. Cells expressing channel protein are detected by cotransfecting cells with the vector pHook-1 (Invitrogen, San Diego, Calif., USA). […] Equal concentrations of individual channel and pHook DNA are incubated with 10× concentration of lipofectAce in Modified Eagle's Medium (MEM, Canadian Life Technologies) and incubated with parent HEK cells plated on 25 mm culture dishes. After 3–4 hours the solution is replaced with a standard culture medium plus 20% fetal bovine serum and 1% antimycotic. Transfected cells are maintained at 37C in an air/5% CO2 incubator in 25 mm Petri dishes plated on glass coverslips for 24–48 hours to allow channel expression to occur. 20 min prior to experiments, cells are treated with beads coated with phOX. After 15 min, excess beads are […] off with cell culture medium and cells which had beads stuck to them are used for electrophysiological tests.
(§2) For whole-cell recording the control pipette filling solution contained (in mM): KCl, 130; EGTA, 5; MgCl2, 1; HEPES, 10; Na2ATP, 4; GTP, 0.1; and is adjusted to pH 7.2 with KOH. The control bath solution contained (in mM): NaCl, 135; KCI, 5; sodium acetate, 2.8; MgCl2, 1; HEPES, 10; CaCl2, 1; and is adjusted to pH 7.4 with NaOH. The test ion channel modulating compound is dissolved to 10 mM stock solutions in water and used at concentrations between 0.5 and 100 μM.
(§3) Coverslips containing cells are removed from the incubator before experiments and placed in a superfusion chamber (volume 250 μl) containing the control bath solution at 22C to 23C. All recordings are made via the variations of the patch-clamp technique, using an Axopatch 200A amplifier (Axon Instruments, CA). Patch electrodes are pulled from thin-walled borosilicate glass (World Precision Instruments; FL) on a horizontal micropipette puller, fire-polished, and filled with appropriate solutions. Electrodes had resistances of […] when filled with control filling solution. Analog capacity compensation is used in all whole cell measurements. In some experiments, leak subtraction is applied to data. Membrane potentials have not been corrected for any junctional potentials that arose between the pipette and bath solution. Data are filtered at 5 to 10 kHz before digitization and stored on a microcomputer for later analysis using the pClamp6 software (Axon Instruments, Foster City, Calif.). Due to the high level of expression of channel cDNA's in HEK cells, there is no need for signal averaging. The average cell capacitance is quite small, and the absence of ionic current at negative membrane potentials allowed faithful leak subtraction of data.
(§4) The concentration-response curves for changes in peak and steady-state current produced by the test compound are computer-fitted to the Hill equation: f=1−1/[1+([…])^n] [1]
(§5) where f is the fractional current (f=Idrug/Icontrol) at drug concentration [D]; IC50 is the concentration producing half-maximal inhibition and n is the Hill coefficient.
(§6) Compounds of the present invention may be evaluated by this method. […] Block is determined from the decrease in peak hH1 Na^+ current, or in steady-state Kv1.5 and integrated Kv4.2 current in the presence of drug. To record Na^+ current, cells are depolarized from the holding potential of −100 mV to a voltage of −30 mV for 10 ms to fully open and inactivate the channel. To record Kv1.5 and Kv4.2 current, cells are depolarized from the holding potential of −80 mV to a voltage of +60 mV for 200 ms to fully open the channel. Currents are recorded in the steady-state at a range of drug concentrations during stimulation every 4 s. […]

Kv4.2 = target: T2, Kv4.2 (Homo sapiens, UniProt Q9NZV8); assay: Patch-clamp inhibition of cloned ion channel current in transfected HEK cells: Kv4.2; type: cell-based; conditions: integrated current, -80 mV to +60 mV
T2 construct: expressed in transfected cells; host or cells: HEK cells, transient transfection, vector pCDNA3
T2 sequence (Q9NZV8 1-630): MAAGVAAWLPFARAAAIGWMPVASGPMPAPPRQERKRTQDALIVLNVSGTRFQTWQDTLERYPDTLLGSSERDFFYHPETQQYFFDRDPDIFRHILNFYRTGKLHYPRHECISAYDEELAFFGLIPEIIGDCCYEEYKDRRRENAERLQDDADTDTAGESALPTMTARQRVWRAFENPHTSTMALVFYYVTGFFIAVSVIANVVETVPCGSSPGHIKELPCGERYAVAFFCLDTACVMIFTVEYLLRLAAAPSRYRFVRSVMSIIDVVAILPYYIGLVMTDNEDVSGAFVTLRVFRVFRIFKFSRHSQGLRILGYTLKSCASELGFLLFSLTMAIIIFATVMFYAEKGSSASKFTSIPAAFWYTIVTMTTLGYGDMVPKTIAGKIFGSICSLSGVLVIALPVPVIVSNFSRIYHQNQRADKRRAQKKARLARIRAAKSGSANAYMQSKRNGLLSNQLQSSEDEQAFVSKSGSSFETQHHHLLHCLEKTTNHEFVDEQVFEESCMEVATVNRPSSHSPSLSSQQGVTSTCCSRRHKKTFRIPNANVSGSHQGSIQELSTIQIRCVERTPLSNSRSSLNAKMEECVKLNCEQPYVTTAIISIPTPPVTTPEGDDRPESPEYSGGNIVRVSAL
Protocol: as §1, §2, §3, §4, §5, §6

IC50 (hH1 Na+ current): 94 µM
IC50 (Kv4.2): 13 µM
SMILES: COc1ccc(CCCOc2cccn3cc(C)nc23)cc1OC [Compound 3, 8-[3-(3,4-DIMETHOXYPHENYL)PROPOXY]-2-METHYLIMIDAZO[1,2-α]PYRIDINE MONOHYDROCHLORDE]
ED50AA (infusion rate reducing arrhythmia score to 50% of vehicle-treated animals) [1]: 5 µmol/kg/min
